{"source": "patent US8247211B2", "about": "“Glycopeptide antibiotics” (American Cyanamid Company, priority 2001, dated 2012)", "key": {"[1]": {"assay": "Anatomic pathology (heart and kidney histopathology) in mice", "format": "in vivo, CD-1 mice", "details": "20 mg/kg intravenously daily for 9 days, microscopic histopathology on day 10", "summary_of_the_method": "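Juvenile CD-1 mice (20 days old; 5 vehicle, 5 treated) received glycopeptide antibiotic 20 mg/kg i.v. daily for 9 days. Necropsied tissues formalin-fixed, paraffin-embedded, H&E stained and examined microscopically; findings graded slight to severe versus controls.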"}, "[2]": {"system": "Staphylococcus aureus-SMITH (GC 4543)", "assay": "Acute lethal infection in mice (ED50)", "format": "in vivo", "details": "female CD-1 mice, intraperitoneal challenge, intravenous dose 30 min. after infection, 7 day survival ratios", "summary_of_the_method": "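Median effective dose is calculated from 7-day survival ratios pooled across three separate tests. Mice (female CD-1) receive an intraperitoneal bacterial challenge in broth or hog gastric mucin, then intravenous drug 30 min later, five animals per dose level.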"}, "[3]": {"format": "in vivo", "details": "mice, 20 mg/kg intravenously daily for 9 days, serum on day 10", "procedure": "20-day-old CD-1 mice were divided into a vehicle control group (5 mice) and a treatment group (5 mice). Samples of glycopeptide antibiotics were administered at 20 mg/kg intravenously daily for 9 days. Animals were necropsied on day 10 Sera were analyzed for BUN (blood urea nitrogen), creatinine, AST (aspartic aminotransferase), and ALT (alanine aminotransferase) by routine, standard, automated methods using an Hitachi 747 chemistry analyzer."}, "[4]": {"system": "Enterococcus sp.", "assay": "In vitro antibacterial evaluation: minimum inhibitory concentration (MIC), broth dilution method", "format": "cell-based", "summary_of_the_method": "(§1)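 NCCLS M7-A2 broth dilution with Mueller-Hinton II, testing 64-0.06 μg/mL antibiotic against 5×10^5 CFU/mL inocula. Test strains include recent methicillin-, penicillin- or vancomycin-resistant clinical isolates. MIC is the lowest concentration preventing growth.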"}, "[5]": {"system": "Streptococcus sp.", "assay": "In vitro antibacterial evaluation: minimum inhibitory concentration (MIC), broth dilution method", "format": "cell-based", "details": "18 hours at 35° C.", "summary_of_the_method": "as §1"}, "[6]": {"system": "Escherichia coli", "assay": "In vitro antibacterial evaluation: minimum inhibitory concentration (MIC), broth dilution method", "format": "cell-based", "summary_of_the_method": "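Following NCCLS approved standard M7-A2, compounds are serially diluted from 64 to 0.06 μg/mL in Muller-Hinton II […] and inoculated at 5×10^5 CFU/mL; the MIC is the minimum concentration at which growth is inhibited.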"}, "[7]": {"system": "Staphylococcus sp.", "assay": "In vitro antibacterial evaluation: minimum inhibitory concentration (MIC), broth dilution method", "format": "cell-based", "details": "18 hours at 35° C.", "summary_of_the_method": "as §1"}, "[8]": {"system": "Escherichia coli", "assay": "In vitro antibacterial evaluation: minimum inhibitory concentration (MIC), broth dilution method", "format": "cell-based", "remark": "listed apart in the source"}}, "note": "Numbered stars: 1 amine (or outer) side, 2 acyl side, 3 side chain; on linkers, the order of the positions; unused ones are H or OH. Square brackets hold non-standard residues; d marks the D form. Peptide text beside a SMILES is read from it. * marks the point of attachment. ξ: configuration not given here. X1 = N=C1NCC(C(O)C(N[*:1])C(=O)[*:2])N1C1OC(CO)C(O)C(O)C1O; ξEnduracididine(βξ-OH,4'ξ) = N=C1NCC(C(O)C(N)C(=O)O)N1; X2 = OCC1OC(OC2C(CO)OC(*)C(O)C2O)C(O)C(O)C1O; Cha = N[CH](CC1CCCCC1)C(=O)O", "data": [{"smiles": "CC(c1ccccc1)C1NC(=O)CNC(=O)C(CO)NC(=O)C(CC2CNC(=N)N2C2OC(CO)C(O)C(O)C2O)NC(=O)C(CC2CNC(=N)N2)NC(=O)C(Cc2ccc(OC3OC(CO)C(OC4OC(CO)C(O)C(O)C4O)C(O)C3O)cc2)NC1=O", "note": "(stereo not drawn) [Example 277a, Cyclo[3-(2-iminoimidazolidin-4-yl)alanyl-3-(3-hexopyranosyl-2-iminoimidazolidin-4-yl)-alanylserylglycyl-β-methylphenylalanyl-O-(4-O-hexopyranosylhexopyranosyl]tyrosyl]]", "values": [{"measurement": "Anatomical Pathology (Day 10), Heart", "setting": "[1]", "value": 0}, {"measurement": "Anatomical Pathology (Day 10), Kidney", "setting": "[1]", "value": "++"}, {"measurement": "median effective dose (ED50), Staphylococcus aureus-SMITH (GC 4543)", "setting": "[2]", "value": ">8"}, {"measurement": "Clinical Chemistry (Day 10) % of Control, BUN", "setting": "[3]", "value": "+110%"}]}, {"smiles": "N=C1NCC(C(O)C2NC(=O)C(Cc3ccc(OC4OC(CO)C(OC5OC(CO)C(O)C(O)C5O)C(O)C4O)cc3)NC(=O)C(CC3CCCCC3)NC(=O)CNC(=O)C(CO)NC(=O)C(C(O)C3CNC(=N)N3C3OC(CO)C(O)C(O)C3O)NC2=O)N1", "note": "(stereo not drawn) [Example 263, Cyclo[3-cyclohexylalanyl-O-(4-O-hexopyranosylhexopyranosyl)tyrosyl-3-(2-iminoimidazolidin-4-yl)seryl-3-(3-hexopyranosyl-2-iminoimidazolidin-4-yl)serylserylglycyl]] (cyclo(G[Cha]Y(X2)[ξEnduracididine(βξ-OH,4'ξ)][X1]S); configuration not given here)", "values": [{"measurement": "Anatomical Pathology (Day 10), Heart", "setting": "[1]", "value": "+"}, {"measurement": "Anatomical Pathology (Day 10), Kidney", "setting": "[1]", "value": "++"}, {"measurement": "median effective dose (ED50), Staphylococcus aureus-SMITH (GC 4543)", "setting": "[2]", "value": ">8"}, {"measurement": "MIC Enterococcus avium (GC 4558)", "setting": "[4]; Enterococcus avium (GC 4558)", "value": ">64", "unit": "mg/L"}, {"measurement": "MIC Enterococcus faecalis (ATCC 29212)", "setting": "[4]; Enterococcus faecalis (ATCC 29212)", "value": ">64", "unit": "mg/L"}, {"measurement": "MIC Enterococcus faecalis (GC 2242)", "setting": "[4]; Enterococcus faecalis (GC 2242), 18 hours at 35° C.", "value": ">64", "unit": "mg/L"}, {"measurement": "MIC Enterococcus faecalis (GC 4552)", "setting": "[4]; Enterococcus faecalis (GC 4552), 18 hours at 35° C.", "value": ">64", "unit": "mg/L"}, {"measurement": "MIC Enterococcus faecalis (GC 4553)", "setting": "[4]; Enterococcus faecalis (GC 4553)", "value": ">64", "unit": "mg/L"}, {"measurement": "MIC Enterococcus faecalis (GC 4554)", "setting": "[4]; Enterococcus faecalis (GC 4554)", "value": ">64", "unit": "mg/L"}, {"measurement": "MIC Enterococcus faecium (GC 2243)", "setting": "[4]; Enterococcus faecium (GC 2243)", "value": ">64", "unit": "mg/L"}, {"measurement": "MIC Enterococcus faecium (GC 4556)", "setting": "[4]; Enterococcus faecium (GC 4556)", "value": ">64", "unit": "mg/L"}, {"measurement": "MIC Enterococcus faecium (GC 4557)", "setting": "[4]; Enterococcus faecium (GC 4557)", "value": 32, "unit": "mg/L"}, {"measurement": "MIC Streptococcus agalactiae (GC 4564)", "setting": "[5]; Streptococcus agalactiae (GC 4564)", "value": 32, "unit": "mg/L"}, {"measurement": "MIC Streptococcus pyogenes (ID-3187)", "setting": "[5]; Streptococcus pyogenes (ID-3187)", "value": 32, "unit": "mg/L"}, {"measurement": "MIC Escherichia coli (GC 4559)", "setting": "[6]; Escherichia coli (GC 4559)", "value": ">64", "unit": "mg/L"}, {"measurement": "MIC Escherichia coli (GC 4560)", "setting": "[6]; Escherichia coli (GC 4560)", "value": 16, "unit": "mg/L"}, {"measurement": "MIC Coagulase Negative Staphylococcus (GC 4547)", "setting": "[7]", "value": 64, "unit": "mg/L"}, {"measurement": "MIC Coagulase Negative Staphylococcus (GC 4547)", "setting": "[7]; broth dilution", "value": 64, "unit": "mg/L"}, {"measurement": "MIC Coagulase Negative Staphylococcus (GC 4548)", "setting": "[7]", "value": 32, "unit": "mg/L"}, {"measurement": "MIC Coagulase Negative Staphylococcus (GC 4548)", "setting": "[7]; broth dilution", "value": 32, "unit": "mg/L"}, {"measurement": "MIC Coagulase Negative Staphylococcus (GC 4549)", "setting": "[7]", "value": 16, "unit": "mg/L"}, {"measurement": "MIC Coagulase Negative Staphylococcus (GC 4549)", "setting": "[7]; broth dilution", "value": 16, "unit": "mg/L"}, {"measurement": "MIC Coagulase Negative Staphylococcus (GC 4551)", "setting": "[7]", "value": 64, "unit": "mg/L"}, {"measurement": "MIC Coagulase Negative Staphylococcus (GC 4551)", "setting": "[7]; broth dilution", "value": 64, "unit": "mg/L"}, {"measurement": "MIC Staphylococcus aureus (ATCC 29213)", "setting": "[7]", "value": 64, "unit": "mg/L"}, {"measurement": "MIC Staphylococcus aureus (ATCC 29213)", "setting": "[7]; broth dilution", "value": 64, "unit": "mg/L"}, {"measurement": "MIC Staphylococcus aureus (GC 1131)", "setting": "[7]", "value": 64, "unit": "mg/L"}, {"measurement": "MIC Staphylococcus aureus (GC 1131)", "setting": "[7]; broth dilution", "value": 64, "unit": "mg/L"}, {"measurement": "MIC Staphylococcus aureus (GC 4541)", "setting": "[7]", "value": 64, "unit": "mg/L"}, {"measurement": "MIC Staphylococcus aureus (GC 4541)", "setting": "[7]; broth dilution", "value": 64, "unit": "mg/L"}, {"measurement": "MIC Staphylococcus aureus (GC 4542)", "setting": "[7]", "value": 64, "unit": "mg/L"}, {"measurement": "MIC Staphylococcus aureus (GC 4542)", "setting": "[7]; broth dilution", "value": 64, "unit": "mg/L"}, {"measurement": "MIC Staphylococcus aureus (GC 4544)", "setting": "[7]", "value": ">64", "unit": "mg/L"}, {"measurement": "MIC Staphylococcus aureus (GC 4544)", "setting": "[7]; broth dilution", "value": ">64", "unit": "mg/L"}, {"measurement": "MIC Staphylococcus aureus (GC 4545)", "setting": "[7]", "value": 64, "unit": "mg/L"}, {"measurement": "MIC Staphylococcus aureus (GC 4545)", "setting": "[7]; broth dilution", "value": 64, "unit": "mg/L"}, {"measurement": "MIC Staphylococcus aureus-SMITH (GC 4543)", "setting": "[7]", "value": 32, "unit": "mg/L"}, {"measurement": "MIC Staphylococcus aureus-SMITH (GC 4543)", "setting": "[7]; broth dilution", "value": 32, "unit": "mg/L"}, {"measurement": "MIC Staphylococcus haemolyticus (GC 4546)", "setting": "[7]", "value": 32, "unit": "mg/L"}, {"measurement": "MIC Staphylococcus haemolyticus (GC 4546)", "setting": "[7]; broth dilution", "value": 32, "unit": "mg/L"}, {"measurement": "MIC Escherichia coli (ATCC 25922)", "setting": "[8]", "value": ">64", "unit": "mg/L"}]}, {"smiles": "CC(C)CC(=O)OCC1OC(OC2C(CO)OC(Oc3ccc(CC4NC(=O)C(C(C)c5ccccc5)NC(=O)CNC(=O)C(CO)NC(=O)C(CC5CNC(=N)N5C5OC(CO)C(O)C(O)C5O)NC(=O)C(CC5CNC(=N)N5)NC4=O)cc3)C(O)C2O)C(O)C(O)C1O", "note": "(stereo not shown) [Example 277c]", "values": [{"measurement": "Clinical Chemistry (Day 10) % of Control, AST", "setting": "[3]", "value": "+253%"}]}]}
